In patent publication US8524744B2, “Arylamine ketones, their preparation methods, the pharmaceutical composition containing them and their use” (Institute of Mataria Medica, Chinese Academy of Medical …, priority 2004, dated 2013):
pIC50: −log10 of the molar value. Where a name gives a salt, the structure may show the parent alone.

How the values were obtained:
[1] = test system: patients with rheumatoid arthritis; conditions: after administration for 4 weeks; cited from earlier work
NF-κB, TNF-α mRNA = conditions: infected mice; cited from earlier work
[2] = test system: mouse with arthritis induced by type III collagen; conditions: cited from earlier work
rat paw swelling = conditions: induced by PAF, carrageenan, histamine, 5-serotonin; cited from earlier work
[3] = test system: polymorphonuclear leucocytes from rat pleural cavity; assay: release of β-glucuronidase by polymorphonuclear leucocytes from rat pleural cavity in vitro (PAF as irritant); format: cell-based; conditions: for Inhibition (%) of β-glucuronidase release: Dose 1 × 10^−5 mol · L^−1, Irritant 1 × 10^−6 mol · L^−1; for pIC50: Leucocyte, rat polymorphonuclear leucocytes
Method: 1% carrageenan was injected into the right pleural cavity of Wistar rat to induce polymorphonuclear leucocytes. The cells was suspended in Dulbecoo's buffer at the concentration of 2.5×10^6 cells·ml^1. The fluid containing the compound or solvent and 250 μl of cells suspension were added in test tube and incubated in 37° C. waterbath for 15 min. Then 2.5 μl of cytochalasin B (1×10^−3 mol·L^−1) was added and the reaction was continued for 5 min. Then 2.5 μl of PAF (1×10^−4 mol·L^−1) was added and for another 5 min. The test tubes were put into ice bath to stop the reaction. The supernatant was isolated and used as the β-glucuronidase release fluid. 25 μl of the enzyme fluid, 25 μl of phenolphthalein-glucuronic acid (2.5 mmol·L^−1) and 100 μl of acetic acid buffer (0.1 mol·L^−1) were added into each well of 96-well plate which was placed into incubater and kept at 37° C.3 for 18 hr. 150 μl of NaOH (0.3 mol·L^−1) was added in each well to cease the reaction and the optical density was read at 550 nm.

[4] = test system: cutaneous vascular permeability in mice induced by PAF; assay: increase of cutaneous vascular permeability in mice induced by PAF; format: in vivo, mouse; conditions: orally, 50 mg·kg^−1, Kunming mice
Method: Kunming mice (male, 18-22 g) were randomly divided into two groups (treatment and control) with 10 animals for each group. The animals were orally administrated with the compounds or solvent, respectively. 1 hr later, 0.25 ml of 1% evans blue dye was injected into the tail vein. After 10 min, 0.1 ml of PAF (1×10^−8 mol·L^−1) was intracutaneously injected into the dorsal skin shaved. 1 hr later, the animals were sacrificed by cervical vertebra displacement. The skin with blue spot was cut off. The evans blue dye was extracted by 0.8 ml of mixed solution of acetone and normal saline (7:3). The supernatant was transferred into the 96-well plate. The optical density was measured at 620 nm.

rat neutrophils = assay: chemotaxis of rat neutrophils in vitro; format: cell-based; conditions: Neutrophil, 4 hr, read-out: IC50, inhibition of chemotaxis
Method: The blood was collected from rat common carotid artery and anticoagulated. The neutrophils was isolated by 5% glucose solution and lymphocyte separating medium. 27 μl of irritant was added into the well at low part of the chemotaxis plate. The filter membrane was covered on the wells and the top part of the plate was assembled on the filter. 50 μl of cells suspension with various concentrations of compound or solvent was added into the well at top part of the plate. The plate was incubated at 37° C. for 4 hr. The filter was taken out, stained by hematoxylin and dehydrated. The cells migrated into the other side of the filter was counted by microscope.

[5] = test system: mouse ear edema induced by croton oil; assay: mouse ear edema induced by croton oil; format: in vivo; conditions: orally, 50 mg·kg^−1, Kunming mice
Method: Kuming mice (male, 18-22 g) were randomly divided into two groups (treatment and control) with 10 animals for each group. The animals were orally administrated with compounds or solvent, respectively. 1 hr later, 50 μl of 2% croton oil was smeared on the two sides of mouse left ear. After 4 hr the mice were sacrificed by cervical vertebra displacement. The two ears were cut off and the central sections were excised using a punch with a diameter of 8 mm and weighed. Edema was quantified as the weight difference between the two sections.

[6] = test system: mouse paw swelling induced by carrageenan; assay: mouse paw swelling induced by carrageenan; format: in vivo; conditions: orally, 50 mg·kg^−1, Kunming mice
Method: Kunming mice (male, 18-22 g) were randomly divided into two groups (treatment and control) with 10 animals for each group. The animals were orally administrated with compounds or solvent, respectively. 1 hr later, 50 μl of 1% carrageenan was intracutaneously injected into the sole of right posterior foot. After 4 hr the animals were sacrificed by displacing cervical vertebra. The two paws were cut off at ankle joint and weighed. The swelling was evaluated by the difference of the weights of two paws.

[7] = test system: intracellular calcium level of rat polymorphonuclear leucocytes; assay: increase of intracellular calcium level of rat polymorphonuclear leucocytes (Fura-2/AM, PAF); format: cell-based; conditions: Leucocyte, read-out: IC50, inhibition of the increase of intracellular calcium level
Method: 1% carrageenan was used to induce polymorphonuclear leucocytes from rat peritoneal cavity. The Fura-2/AM (final concentration: 3×10^−6 mol·L^−1) was added into cells suspension. 1 ml of cells suspension was added into the test tube with compound or solvent. The test tubes were placed in a shaking waterbath at 37° C. for 45 min. Then the test tubes were cooled at room temperature for 15 min. The cells were rinsed twice using HBSS to discarded Fura-2/AM remained in outside of the cells. The suspension of cells loaded with Fura-2/AM was added into the absorbent chamber of fluorospectrometer. The cells were kept to suspend at 37° C. and the fluorescence strength was measured at resting condition or after 20μl of PAF (1×10^−4 mol·L^−1), 20 μl of 10% Triton X-100 and 100 μl EGTA (500 mmol·L−1) was added, respectively. The changes of the intracellular level of calcium at the resting condition or after irritants were added was calculated by program for Ca^2+ measurement.

[8] = molecular target: T1, PAF receptors of rat polymorphonuclear leucocytes (Rattus norvegicus, UniProt P46002); assay: competitive binding of [3H]-PAF to its receptors of rat polymorphonuclear leucocytes; conditions: 37° C., 30 min, read-out: IC50, competition with [3H]-PAF binding
T1 construct: The suspension of rat polymorphonuclear leucocytes was prepared; endogenous in cells; host or cells: rat polymorphonuclear leucocytes (primary, whole-cell suspension)
T1 sequence (P46002 whole entry): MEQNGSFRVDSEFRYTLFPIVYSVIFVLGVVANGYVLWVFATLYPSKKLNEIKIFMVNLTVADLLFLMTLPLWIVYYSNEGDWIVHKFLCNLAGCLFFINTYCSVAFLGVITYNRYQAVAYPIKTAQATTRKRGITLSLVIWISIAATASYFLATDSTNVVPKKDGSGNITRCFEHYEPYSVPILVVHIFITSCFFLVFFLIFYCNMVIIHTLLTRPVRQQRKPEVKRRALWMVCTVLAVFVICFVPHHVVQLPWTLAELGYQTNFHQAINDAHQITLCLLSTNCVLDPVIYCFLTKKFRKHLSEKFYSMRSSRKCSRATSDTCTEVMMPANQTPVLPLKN
Method: The suspension of rat polymorphonuclear leucocytes was prepared. 240 μl of cells suspension (2×10^6cells·ml^−1), 5 μl of [^3H](5 μmol·L^1) were added into each well. 5 μl of unlabeled PAF (5 μl mol·L^−1)was added into the well for the nonspecific binding. The series concentrations of compound were added into the well for the competitive binding and the corresponding volume of solvent was added into the wells for the total binding or the nonspecific binding. The reaction was kept in water bath at 37° C. for 30 min and stopped by ice bath. Reaction fluid was filtrated using the filter membrane which was rinsed by cold buffer to separate the free labeled ligand. The filter membrane was dried at 80° C. and placed into a vial for scintillation in which 5 ml of scintillation agent was poured. The radioactivity strength was measured by scintillation counter.

rat ear edema = conditions: induced by PAF or PMA; cited from earlier work
mouse ear edema = conditions: induced by arachidonic acid; cited from earlier work
[9] = test system: TNF-α level in synovial fluid of rat ankle joint; conditions: induced by immune complex; cited from earlier work
[10] = test system: new vessels in mouse angiogenesis model; conditions: mouse angiogenesis model induced by synovial fluid of patient with rheumatoid arthritis; cited from earlier work

In the case of COc1ccc(NC(=S)N2CCc3c(sc4c3C(c3ccccc3Cl)=NCc3nnc(C)n3-4)C2)cc1 [BN50730], the “symptom of patients with rheumatoid arthritis” value [1] is listed as “significantly improves”, the “early activity of NF-κB” value (NF-κB, TNF-α mRNA) is listed as “reduce” and the “expression of TNF-α mRNA” value (NF-κB, TNF-α mRNA) is listed as “reduce”. For the same compound, the “consumption of proteoglycan in cartilage” value [2] was “decrease”, the joint swelling [2] was “significantly inhibit” and the “precipitation of fibronectin in cartilage” value [2] was “decrease”.

For CCCCCCCCCCCCCCCCCCNC(=O)OCC(COC(=O)N(Cc1cccc[n+]1CC)C(C)=O)OC (stereo not shown) [CV-6209], the rat paw swelling (rat paw swelling) is given as “inhibit”.

For O=C(C=Cc1ccc(C(F)(F)F)cc1)CCN1CCC(Cc2ccccc2)CC1 [Compound 20, 5-[(4-Benzyl)piperidyl]-1-(4-trifluoromethylphenyl)-1-penten-3-one hydrochloride], the “Inhibition (%) of β-glucuronidase release” value [3] was 104.03%, the pIC50 [3] was 6.51 and the “Inhibition (%) of increase of cutaneous vascular permeability” value [4] was 55.78%. For the same compound, the pIC50 (rat neutrophils) was 6.47, the “Inhibition (%) of mouse ear edema” value [5] was 27.66% and the “Inhibition (%) of mouse paw swelling” value [6] was 21.46%. It also gave a pIC50 [7] of 5.29 and a pIC50 [8] of 4.26.

With COc1ccc(C=CC(=O)CCN2CCC(Cc3ccccc3)CC2)cc1 [Compound 22a, 5-[(4-Benzyl)piperidyl]-1-(4-methoxyphenyl)-1-penten-3-one hydrochloride] the “Inhibition (%) of β-glucuronidase release” value [3] was 73.17%, the pIC50 [3] was 6.25 and the “Inhibition (%) of increase of cutaneous vascular permeability” value [4] was 51.14%. For the same compound, the pIC50 (rat neutrophils) was 8.39, the “Inhibition (%) of mouse ear edema” value [5] was 31.22% and the “Inhibition (%) of mouse paw swelling” value [6] was 23.33%.

In the case of CN(C)C(=O)n1cc(C(=O)c2ccn3c2CS[C@@H]3c2cccnc2)c2ccc(-c3ccc(F)cc3)cc21 [Compound A-85783], the rat ear edema (rat ear edema) is listed as “significantly inhibit”.

For COc1cc([C@H]2CC[C@H](c3cc(OC)c(OC)c(OC)c3)O2)cc(CNC(=O)N(C)O)c1OCCSc1ccc(Cl)cc1 [LDP-392], the mouse ear edema (mouse ear edema) is listed as “significantly inhibit”.

For Cc1nnc2n1-c1sc3c(c1C(c1ccccc1Cl)=NC2)CC(C(=O)N1CCOCC1)C3 (stereo not shown) [WEB2170], the “increase of TNF-α level in synovial fluid” value [9] is listed as “inhibit” and the “increase of new vessels” value [10] is listed as “inhibit”.
